Reference: patent publication US11332438B2, “Creatine prodrugs, compositions and methods of use thereof” (Ultragenyx Pharmaceutical Inc., priority 2017, dated 2022)

Legend:
[1] = molecular target: T1, recombinant human FAAH enzyme (rFAAH) (Homo sapiens, UniProt O00519); experiment: Direct prodrug cleavage with recombinant human FAAH enzyme (rFAAH): d3-Cr release and d3-Crn cyclization; assay type: biochemical; conditions: 200 μM prodrug, 3 h; result in words
T1 sequence (O00519 1-579): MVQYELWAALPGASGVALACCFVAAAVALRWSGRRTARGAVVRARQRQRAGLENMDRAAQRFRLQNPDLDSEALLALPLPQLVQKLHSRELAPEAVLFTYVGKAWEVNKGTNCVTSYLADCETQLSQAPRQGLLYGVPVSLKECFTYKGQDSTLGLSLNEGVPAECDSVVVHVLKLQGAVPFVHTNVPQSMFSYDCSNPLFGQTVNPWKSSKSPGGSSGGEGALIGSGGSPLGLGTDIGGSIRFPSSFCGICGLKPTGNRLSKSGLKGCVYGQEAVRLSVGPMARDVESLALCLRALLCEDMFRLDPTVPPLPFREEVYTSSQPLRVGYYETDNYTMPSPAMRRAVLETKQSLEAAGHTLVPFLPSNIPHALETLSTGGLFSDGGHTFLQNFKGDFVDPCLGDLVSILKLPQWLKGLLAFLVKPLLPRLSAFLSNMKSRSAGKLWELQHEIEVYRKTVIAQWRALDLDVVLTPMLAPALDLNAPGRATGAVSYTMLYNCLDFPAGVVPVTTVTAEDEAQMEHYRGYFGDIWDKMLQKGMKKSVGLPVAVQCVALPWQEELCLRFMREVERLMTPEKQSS
Experimental: For assessment of the ability of prodrugs to release creatine, and to release creatine preferentially to unwanted cyclization to creatinine, d3-labeled (deuterium labeled methyl group) prodrugs are incubated with brain homogenates (e.g., mouse, human) specially prepared to preserve FAAH activity or with rFAAH for direct cleavage study. The use of d3-labelled prodrugs is essential in order to distinguish prodrug-derived creatine (d3-creatine) from high concentrations of endogenous (non-labeled) creatine. […] Prodrugs are tested at final concentrations of 20 μM and 200 μM. Approximately 3-4 mg of homogenate is used for each reaction. Co-factor (NADPH) is included at a final concentration of 1 mM. FAAH activity is confirmed by conversion of 7-amino-4-methyl Coumarin-Arachidonamide to 7-amino-4-methyl Coumarin by fluorescent assay. Negative controls include incubations without brain homogenate/rFAAH (but with NADPH) or 65° C. heat inactivated brain homogenate/rFAAH to assess non-enzymatic prodrug cleavage under the conditions of the assay and FAAH inhibitor […] at the concentration of 1 μM. Prodrug incubations are prepared by addition of 8 μL of prodrug stock solution (500 or 5000 μM in DMSO or DMSO/methanol) to assay buffered, followed by addition of brain homogenate/rFAAH. […] The samples are centrifuged at 15890×g for 10 minutes at 4° C., followed by transfer of the supernatants for storage at −20° C. pending LC-MS/MS analysis. Sample supernatants are analyzed by LC-MS/MS for determination of d3-prodrug, d3-creatine and d3-creatinine levels.
Deuterated creatine prodrugs were tested in 3 different in vitro assays to assess d3-creatine (d3-Cr) release and cyclization to form d3-creatinine (d3-Crn). These assays were 1) direct cleavage with recombinant human FAAH enzyme (rFAAH), 2) cleavage in mouse brain homogenates (MBH), and 3) human brain homogenates (HBH).
Creatine prodrug cleavage efficiency was determined by percentage of net d3-Cr release in μM (positive reaction subtracted from negative control of no brain homogenate/rFAAH or inactivated brain homogenate/rFAAH) over nominal input concentration of 200 μM prodrug at 3 h. Propensity for creatinine cyclization was determined by percentage of d3-Crn generated in μM in positive reaction over nominal input concentration of 200 μM prodrug at 3 h.

[2] = system: ARPE-19 cells; experiment: Creatine prodrug uptake and d3-creatine release in ARPE-19 cells (Table 4A); assay type: cell-based, human; conditions: 50 μM, 6 h, cytosol fraction, corrected for total protein
Experimental: At the end of the incubation, supernatant will be collected from each well to assess prodrug recovery. Cells are then washed 3× with PBS. Plates, prodrugs in supernatant, prodrugs in serum-free medium are stored at −80° C. until harvest (within 5 days). On the day of extraction, 130 uL of lysis buffer (10 mM Tris pH 7.4) with EDTA-free protease inhibitors is added to each well and cells are removed using a cell scraper. Lysates are further homogenized using a handheld pestle and then centrifuged at 16,000 g, […], for 10 minutes to collect cytosol fraction. Pellets will be stored at −80° C. until further analysis. A 4× volume of stop solution (80% ACN/20% water) will be added to the cytosol fraction, supernatant and medium. Samples will be centrifuged at 15,890 g (13,000 rpm) at 4° C. for 10 mins. Supernatant will be collected and stored at −80° C. within 5 days prior to LC-MS/MS analysis. Dosing solutions for each prodrug (10 μM) will be assayed to verify concentration. Cells alone with vehicle will serve as controls to assess background signal for LC-MS/MS. Two independent runs of experiment will be conducted.
Nine fatty acid amide creatine prodrugs were tested in human ARPE-19 cells to assess prodrug uptake and d3-Cr release inside the cells. 50 μM of prodrug was incubated in culture medium with the cells and the cells were harvested at 6 h. Quantitation of prodrugs, d3-Cr (d3-creatine) and d3-Cm (d3-creatinine) in the cytosol fraction was corrected for total protein concentration.

[3] = In vivo IV dosing in CrT KO mice: prodrug, d3-Cr and d3-Crn in brain (Table 5); conditions: CrT KO mouse brain, BQL prodrug = 41.2 ng/mL
In short: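 CrT KO mice received prodrugs by IV injection at 10, 15 or 25 mg/kg. Brains were collected, flash frozen and homogenized in 100 mM KPI buffer with anti-proteases. Prodrug, d3-Cr and d3-Crn were quantified by LC-MS/MS and expressed as brain concentration (macrocycles) or AUC over time (linear prodrugs).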

SMILES	Prodrug Cleavage rFAAH d3-Crn release (yes/no) [1]	Prodrug Cleavage rFAAH net d3-Cr release (yes/no) [1]	prodrug, Cellular Uptake [2]	AUClast prodrug in the brain ([3]; IV 15 mg/kg)	AUClast prodrug in the brain ([3]; IV 10 mg/kg)
Cl.[H]/N=C(/NC(=O)CCCCCCC/C=C\CCCCCCCC)N(CC(=O)OCCCCCCC)C([2H])([2H])[2H] [Compound 2, (Z)-heptyl 2-(1-trideuteriomethyl-3-oleoylguanidino)acetate Hydrochloride]	yes	no	BQL		
Cl.[2H]C([2H])([2H])N(CC(=O)OCC)C(=N)NC(=O)CCCCCCCCCC [Compound 8]				BQL	
Cl.[2H]C([2H])([2H])N(CC(=O)OCCCCCCC)C(=N)NC(=O)CCCCCCCCCCCC [Compound 11]	yes	no	BQL		BQL
